Common to all, as to test: NCI tumour cell line growth inhibition, 48 h
Experiment [1] deals with A549 NSCLC.
Experiment [2] relates to DLD-1 colon.
For experiment [3], the system named is EKVX NSCLC.
In experiment [4] the test system is M14 melanoma.
Experiment [5] concerns M19-MEL melanoma.
Experiment [6] relates to NCI-H460 lung.
In experiment [7] the test system is OVCAR-5 ovarian.
Experiment [8] concerns OVCAR-8 ovarian.
Experiment [9] concerns UACC-257 melanoma.
In experiment [10] the test system is DU-145 prostate.
Experiment [11] relates to PC-3 prostate.

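1) Cells in 96-well plates. 2) Compound, 48 h, 5 concentrations. 3) Linear interpolation between surrounding doses. 4) Unreached endpoint = highest concentration. TGI marks complete inhibition of growth.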

As for `COc1cc2c(c(OC(C)=O)c1OC(C)=O)-c1ccc(SC)c(=O)cc1C(NC(C)=O)CC2` (stereo not drawn), the TGI in experiment [1] is over 100 µM; in [2], over 100 µM; in [3] it was over 100 µM; in [4], over 69.1 µM; in [5], over 73.5 µM; in experiment [6], 20 µM. Besides, the TGI in [7] was over 100 µM; in [8], 55.1 µM; in [9], over 100 µM.

For `CC(C)(C)NC(=O)C12C3C4C1C1C2C3C41C(=O)NC(C)(C)C` (stereo not drawn), the TGI in experiment [1], in [10], in experiment [3], in experiment [4], in experiment [6] and in experiment [7] was over 100 µM in each case. In addition, the TGI in experiment [8], in experiment [11] and in experiment [9] was over 100 µM each time.

As to `CC(=O)N/C(=C\c1ccc(/C=C(\NC(C)=O)C2=NC3C(=O)c4ccccc4C(=O)C3N2)cc1)C1=NC2C(=O)c3ccccc3C(=O)C2N1` (stereo not drawn), the TGI in [2], in experiment [3], in [4], in experiment [5], in experiment [6] and in experiment [7] was over 100 µM each time. In addition, the TGI in experiment [8] and in [9] was over 100 µM in each case.

As for `CC(=O)N=C1N(/C=C2\C(=O)Oc3ccccc3C2=O)C(=O)/C(=C/c2ccccc2Cl)N1C`, the TGI in [1], in experiment [10], in experiment [3], in experiment [4], in experiment [6] and in [7] was over 100 µM in each case. Also, the TGI in experiment [8], in [11] and in experiment [9] was over 100 µM in each case.

Turning to `c1ccc(C2=Nc3cccc4cccc(c34)N2)cc1`, the TGI in experiment [1], in experiment [10], in experiment [3], in [4], in experiment [6] and in [7] was over 100 µM in each case. Besides, the TGI is over 87 µM in [8], 68 µM in [11] and over 100 µM in experiment [9].

Take `CCOC(=O)NC(=S)c1ccc(O)c2ccccc12`: the TGI in experiment [1], in experiment [10], in experiment [3], in experiment [4], in [6] and in [7] was over 100 µM throughout. For the same molecule, the TGI in [8], in [11] and in experiment [9] was over 100 µM each time.

Take `O=C1CN(c2ccc(Cl)cc2)C(=O)CN1NCNN1CC(=O)N(c2ccc(Cl)cc2)CC1=O`: the TGI in [1], in experiment [10], in [3], in [4], in experiment [6] and in experiment [7] was over 100 µM in each case. For the same molecule, the TGI in experiment [8], in [11] and in experiment [9] was over 100 µM each time.

For the molecule `COc1cccc2cc(C(=O)Nc3ccccn3)c(=N)oc12`, the TGI in experiment [1], in experiment [10], in [3], in [4], in [6] and in experiment [7] was over 100 µM each time. Also, the TGI in [8], in [11] and in [9] was over 100 µM in each case.

Take `CC[C@@H](/C=C\CCC1(C[C@@H](N)CCC=C(C)C)OCCO1)O[Si](C(C)C)(C(C)C)C(C)C`: the TGI was found to be 33.1 µM in experiment [1]; 40.3 µM in [10]; 29.3 µM in experiment [3]; 33.6 µM in [4]; 34.9 µM in experiment [6]; 31.1 µM in experiment [7]. Moreover, the TGI was found to be 26.4 µM in experiment [8], 29.6 µM in experiment [11] and 36.6 µM in experiment [9].

With `CCC1=NC(C(F)(F)F)(C(F)(F)F)N=C(/N=C(/N)N(C)C(C(C)C)P(=O)(OC(C)C)OC(C)C)O1` (stereo not drawn), the TGI in [1], in [10], in [3], in experiment [4], in experiment [6] and in [7] was over 100 µM throughout. Besides, the TGI in experiment [8], in [11] and in [9] was over 100 µM throughout.

Turning to `C[C@]12CC/C(=N\OCCN3CCCCC3)C=C1CCC1C2CC[C@@]2(C)C1CC[C@]2(C)O` (stereo partly drawn), the TGI in experiment [1] worked out at 35 µM; in [10], 44.8 µM; in experiment [3], 44.6 µM; in experiment [4], 37.7 µM; in experiment [6] it was 17.5 µM; in experiment [7] it was 94.4 µM. In addition, the results for the TGI in experiment [8], in [11] and in experiment [9] were 27 µM, 49.5 µM and 18.9 µM, respectively.

Regarding `Cc1cc(C)n(CN(Cn2nc(C)cc2C)c2ccccc2)n1`, the TGI is over 100 µM in experiment [1]; over 100 µM in [10]; 72.8 µM in experiment [3]; 31.1 µM in experiment [4]; over 100 µM in [6]; 69.6 µM in [7]. Moreover, the TGI in experiment [8] was 56 µM; in experiment [11], over 100 µM; in experiment [9], 61 µM.

As for `CC(NC(NC(C)C12CC3CC(CC(C3)C1)C2)=C(C(Cl)=C(Cl)Cl)[N+](=O)[O-])C12CC3CC(CC(C3)C1)C2` (stereo not drawn), the TGI was 25.7 µM in experiment [1]; over 100 µM in experiment [10]; over 89.4 µM in [3]; 48.7 µM in experiment [4]; 21.8 µM in [6]; over 100 µM in experiment [7]. The TGI in experiment [8] is 7.41 µM; in [11], over 65.2 µM; in experiment [9], over 54.6 µM.

In the case of `CC(=O)OCC(OC(C)=O)C(OC(C)=O)C(OC(C)=O)C(/C=N\Nc1nc2ccccc2c(=O)[nH]1)=N/Nc1nc2ccccc2c(=O)[nH]1` (stereo not drawn), the TGI in experiment [1], in experiment [10], in experiment [3], in [4], in experiment [6] and in experiment [7] was over 100 µM in each case. In addition, the TGI in experiment [8], in experiment [11] and in [9] was over 100 µM in each case.

On to `[O-][n+]1c(-c2ccccc2)c2nc3ccccc3nc2c2ccccc21`, for which the TGI in [1], in experiment [2], in [3], in [4], in experiment [5] and in experiment [6] was over 100 µM each time. Moreover, the TGI in [7], in experiment [8] and in experiment [9] was over 100 µM in each case.

For the molecule `CCN(CC)CCNc1ccc2nnn3c4ccccc4c(=O)c1c23`, the TGI is 13.2 µM in experiment [1]; 42.2 µM in experiment [2]; 19.4 µM in experiment [3]; 15.6 µM in experiment [4]; 17.2 µM in experiment [5]; 6.27 µM in experiment [6]. The TGI was found to be 14.4 µM in experiment [7], 18.6 µM in experiment [8] and 22.3 µM in [9].

In the case of `COC(=O)c1c2c(cc3c1CC1(Cc4cc5c(cc4C1)CCC5)C3)CCC2`, the TGI in [1], in experiment [10], in experiment [3], in [4], in experiment [6] and in [7] was over 100 µM throughout. Also, the TGI in experiment [8], in [11] and in experiment [9] was over 100 µM throughout.

As to `Cc1c2c(ccc3ccccc32)c[n+]2ccccc12`, the TGI in experiment [1] was over 100 µM; in experiment [2] it was over 100 µM; in [4], 40.9 µM; in experiment [7], over 100 µM; in experiment [8] it was 60.1 µM; in [9], 26.5 µM.

With `Cc1ccc(-c2cc(-c3c(C)nn(C)c(=O)c3N)[nH]n2)cc1`, the TGI in [1], in experiment [10], in experiment [3], in experiment [4], in [6] and in experiment [7] was over 100 µM throughout. Further, the TGI in [8], in experiment [11] and in experiment [9] was over 100 µM in each case.

As to `COc1ccc2c(CCNS(=O)(=O)c3ccccc3)c(C(C)=O)[nH]c2c1`, the TGI in experiment [1], in [10], in experiment [3], in experiment [4], in [6] and in [7] was over 100 µM throughout. For the same molecule, the results for the TGI in [8], in [11] and in [9] were over 100 µM, over 100 µM and over 57.1 µM, respectively.

Turning to `N#CCCN(CCC#N)c1ccc(C(N=Nc2ccc(Cl)cc2)=Nc2ccc(F)cc2)cc1`, the TGI in experiment [1], in experiment [10], in experiment [3], in [4], in [6] and in experiment [7] was over 100 µM throughout. In addition, the TGI in [8], in experiment [11] and in experiment [9] was over 100 µM in each case.

With `C=C1CC(COc2ccc3c(C)cc(=O)oc3c2)(c2ccccc2)OC1=O` (stereo not drawn), the TGI stood at 25 µM in experiment [1]; 6.68 µM in [10]; 25.2 µM in experiment [3]; 2.66 µM in experiment [4]; 23.5 µM in [6]; 24.5 µM in experiment [7]. The TGI was determined as 5.57 µM in experiment [8], 5.78 µM in experiment [11] and 3.9 µM in experiment [9].

As for `COc1ccc(/C=C2/CCS(=O)(=O)c3ccc(C)cc3C2=O)cc1OC`, the TGI is over 100 µM in experiment [1]; 15.1 µM in experiment [10]; 40.3 µM in experiment [3]; over 100 µM in experiment [4]; 25.8 µM in experiment [6]; over 100 µM in experiment [7]. Moreover, the TGI stood at 48.1 µM in experiment [8], 58.9 µM in experiment [11] and 25.4 µM in experiment [9].

Regarding `COC(=O)C1C(C(=O)OC)C1(Br)CBr` (stereo not drawn), the TGI in experiment [1] is over 100 µM; in [10] it was over 100 µM; in experiment [3], 90.3 µM; in experiment [4], over 100 µM; in experiment [6], over 100 µM; in experiment [7], over 100 µM. In addition, the TGI in [8], in experiment [11] and in [9] was over 100 µM in each case.

For the molecule `O=[As](O)(O)c1ccc2nc3cc([As](=O)(O)O)ccc3nc2c1`, the TGI in experiment [1], in experiment [10], in experiment [3], in [4], in experiment [6] and in experiment [7] was over 100 µM each time. In addition, the TGI in experiment [8], in experiment [11] and in [9] was over 100 µM throughout.

Take `CCN(CC)CCNc1ccc(C)c2sc3ccccc3c(=O)c12`: the TGI was determined as 7.13 µM in [1]; 18.3 µM in experiment [10]; 19.3 µM in [3]; 3.36 µM in experiment [4]; 5.93 µM in experiment [6]; 9.59 µM in [7]. Moreover, the TGI in experiment [8] worked out at 13.3 µM; in experiment [11], 11.2 µM; in [9], 3.18 µM.

Turning to `Cc1cc(C)n(C(=O)CSc2nnc(SCC(=O)n3nc(C)cc3C)s2)n1`, the TGI in experiment [1], in experiment [10], in experiment [3], in experiment [4], in experiment [6] and in experiment [7] was over 100 µM throughout. The TGI in experiment [8], in experiment [11] and in experiment [9] was over 100 µM each time.

With `CCCCCCCCCc1c(O)c(O)c(CCCCCCCCC)c(CCCCCCCCC)c1CCCCCCCCC`, the TGI in [1], in experiment [10], in experiment [3], in [4], in [6] and in experiment [7] was over 100 µM throughout. The TGI in [8], in experiment [11] and in experiment [9] was over 100 µM throughout.

Values taken from PubChem BioAssay (NCI).
